Test results taken from the supplement of paper PMC10307832.

Legend:
Assay in all cases: relative viability (nuclei count vs DMSO), 5 days (fraction); higher = more cells survive
[1] = compound: C=CCn1c(=O)c2cnc(Nc3ccc(N4CCN(C)CC4)cc3)nc2n1-c1cccc(C(C)(C)O)n1 [Adavosertib] + C[C@@H](Oc1cc(-c2cnn(C3CCNCC3)c2)cnc1N)c1c(Cl)ccc(F)c1Cl [Crizotinib] (partner 1 µM)
Procedure, shortened: (§1)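 The day after seeding in 1536-well plates, lung cancer cell lines were treated by pin tool with a single drug, or with a fixed anchor-drug dose together with five library-drug doses (not always all listed) in √10 steps. After 5 days, a combined fix-and-stain solution (final 0.05% Triton X-100, 1% formaldehyde, 1 ug/ml Hoechst) was added. Nuclei counted on 4× images gave relative viability as treated counts over vehicle counts, reported as the median of duplicate plates.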

[2] = compound: COc1nc(N)nc2c1ncn2[C@@H]1O[C@H](CO)[C@@H](O)[C@@H]1O [Nelarabine] + CC(C)C[C@H](NC(=O)[C@H](Cc1ccccc1)NC(=O)c1cnccn1)B(O)O [Bortezomib] (partner 0.002 µM)
Procedure, shortened: as §1

[3] = compound: C=CCn1c(=O)c2cnc(Nc3ccc(N4CCN(C)CC4)cc3)nc2n1-c1cccc(C(C)(C)O)n1 [Adavosertib] + CC(=O)c1c(C)c2cnc(Nc3ccc(N4CCNCC4)cn3)nc2n(C2CCCC2)c1=O [Palbociclib] (partner 0.5 µM)
Procedure, shortened: as §1

[4] = compound: COc1nc(N)nc2c1ncn2[C@@H]1O[C@H](CO)[C@@H](O)[C@@H]1O [Nelarabine] + O=C(CCCCCCC(=O)Nc1ccccc1)NO [Vorinostat] (partner 1 µM)
Procedure, shortened: as §1

Cell Line	relative viability ([1]; first compound 0.01 µM)	relative viability ([1]; first compound 0.03162 µM)	relative viability ([1]; first compound 0.1 µM)	relative viability ([1]; first compound 0.3162 µM)	relative viability ([2]; first compound 0.01 µM)	relative viability ([2]; first compound 0.03162 µM)	relative viability ([2]; first compound 0.1 µM)	relative viability ([2]; first compound 0.3162 µM)	relative viability ([2]; first compound 1 µM)	relative viability ([3]; first compound 0.01 µM)	relative viability ([3]; first compound 0.03162 µM)	relative viability ([3]; first compound 0.1 µM)	relative viability ([3]; first compound 0.3162 µM)	relative viability ([4]; first compound 0.01 µM)	relative viability ([4]; first compound 0.03162 µM)	relative viability ([4]; first compound 0.1 µM)	relative viability ([4]; first compound 0.3162 µM)	relative viability ([4]; first compound 1 µM)
NCI-H647	1.2	1.08	0.967	0.593	1.28	0.988	0.897	1.29	1.14	0.408	0.461	0.261	0.316	0.764	0.798	0.716	0.456	0.583
NCI-H2347	0.72	0.778	0.772	0.699	1.27		0.862	0.985	1.3	0.41	0.419	0.444	0.44	0.584	0.69	0.569	0.61	0.455
NCI-H1395										0.616	0.657	0.591	0.674	0.757	0.706	1.16	0.755	0.666
NCI-H522										1.02	1.1	1.21	1.06	1.02	0.857	0.683	0.867	0.934
NCI-H2087	0.911	0.96	1.03	0.896	1.08	0.821	1.03	1.03	0.793	0.218	0.217	0.263	0.243	0.674	0.551	1.07	0.874	0.898
EPLC-272H	1.01	1.03	0.797	0.652	1.04	0.925	0.823	0.887	0.981	0.331	0.32	0.35	0.317	0.313	0.411	0.459	0.387	0.385
NCI-H838	0.872	0.847	0.82	0.77	1.06	0.748	0.87	0.868	0.7	0.232	0.211	0.224	0.213	0.861	0.79	0.759	0.755	0.73
NCI-H661	1.08	1.1	1.13	1.04	0.986	0.932	0.866	0.912	0.866	0.424	0.449	0.464	0.451	0.862	0.951	0.702	0.761	0.727
NCI-H2170	1.23	1.17	1.19	1.35						0.403	0.419	0.399	0.36	1.09	0.835	0.742	0.878	0.71
NCI-H1703	0.853	0.712	0.978	0.103	0.364	0.162	0.405	0.303	0.448									
NCI-H1651	0.836	0.882	0.897	0.899	1	0.873	1.02	0.977	0.817	0.499	0.523	0.572	0.612	0.487	0.591	0.525	0.566	0.553
LU99A	0.529	0.584	0.561	0.461	1.33	1.09	1.15	1.23	1.33	0.404	0.373	0.393	0.409	0.615	0.417	0.579	0.467	0.39
LK-2	0.278	0.249	0.188	0.224						0.7	0.937	0.879	0.761	0.242	0.256	0.334	0.294	0.283
NCI-H1666	0.926	0.963	1.01	1.05	1.02	1.02	0.747	0.89	0.789	0.613	0.64	0.662	0.699	1.03	1.03	1.18	1.09	0.964
H3255	0.87	1.04	1.04	0.936	1.06	0.868	0.897	0.722	0.696	0.317	0.341	0.333	0.32	0.904	0.786	0.777	0.961	0.8
SK-MES-1	0.92	1.02	0.983	0.791						0.343	0.337	0.305	0.25	1.36	1.12	1.18	1.36	1.3
NCI-H2023	0.717	0.681	0.573	0.551	1.28	1.08	0.864	1.04	0.934	0.412	0.377	0.331	0.202	0.793	0.821	0.525	0.71	0.687
NCI-H1650	0.931	1.02	1.04	1.17	0.173	0.213	0.231	0.196	0.233	0.295	0.34	0.289	0.293	0.61	0.53	0.524	0.549	0.681
LCLC-97TM1		0.501	0.357	0.147	1.05		0.716	0.634	0.205	0.25	0.213	0.237	0.294			0.464	0.819	0.713
UMC-11	0.63	0.588	0.739	0.623	0.928	0.572	0.924	0.816	0.535	0.326	0.339	0.348	0.351	0.385	0.306	0.386	0.371	0.404
